Laboratory results taken from US8637038B2, “Methods for inhibiting allograft rejection” (Rigel Pharmaceuticals, Inc., priority 2011, dated 2014).

Assays:
Assay type in all cases: in vivo, rat
[1] = test system: Lew recipients of heterotopic BN heart transplants; assay: Five-day heart allograft study: H+E histology, ISHLT rejection classification; conditions: HD (Compound I 60 mg/kg BID, Compound III 20 mg/kg BID, Tac 4 mg/kg QD); five days after transplantation
From the text: Male Brown Norway (BN) and Lewis (Lew) rats weighing 350 g were purchased from Harlan (Indianapolis, Ind.) and were housed under conventional conditions. All animals were fed standard rat chow and water ad libitum and received humane care in compliance with the Principles of Laboratory Animal Care formulated by the National Society for Medical Research and the Guide for the care and Use of Laboratory Animals published by the National Institutes of Health (National Institutes of Health publication No. 85-23, revised 1985). Allogeneic (BN-to-Lew) and syngeneic (Lew-to-Lew) heterotopic heart transplantations were performed as described previously (Ono et al., J. Thorac. Cardiovasc. Surg. 57:225-229, 1969). In brief, rats were anaesthetized using 2% isoflurane. The donor received an intravenous bolus of 500 I.U. heparin. Cardiac arrest was achieved using 20 ml Bretschneider solution (Custodiol, Dr. F. Koehler Chemie, Bensheim, Germany). […] Heart-beating score was assessed directly after transplantation for each animal from score 0 (no palpable contraction) to 4 (strong and regular contraction). Only animals with beating scores of 4 were included into the study. Compound I and Compound III were provided by Rigel (South San Francisco, Calif.) and Tacrolimus was provided by Astellas (Munich, Germany). All drugs were administrated orally each in two different concentrations: Compound I LD (15 mg/kg BID; n=6) and HD (60 mg/kg BID; n=6); […] Administration of all drugs was performed every day at the same time points. Tacrolimus was applied only once a day (QD) every 24 hours. During administration of Compound I (BID) and Compound III (BID) a 12 hour pause was kept in between each drug application. Lew recipients of heterotopic BN heart transplants were randomly assigned to their group. […] An untreated syngeneic transplant group Lew-Lew was generated as control. Grafts were recovered five days after transplantation and fixed in 4% paraformaldehyde (Science Services, Munich, Germany), dehydrated and embedded in paraffin. […] Waldeck, Carl Roth GmbH, Munster, Germany) and examined by standard light microscopy. The extent of acute cardiac graft rejection in H+E staining was examined by an experienced pathologist according to the 2004 ISHLT working formulation (Stewart et al., J. Heart Lung Transplant. 24:1710-1720, 2005).

[2] = test system: BN-to-Lew heterotopic heart transplantations; assay: Graft survival study after 10-day treatment, with combination index; conditions: no medication 7±0 days
From the text: Male Brown Norway (BN) and Lewis (Lew) rats weighing 350 g were purchased from Harlan (Indianapolis, Ind.) and were housed under conventional conditions. All animals were fed standard rat chow and water ad libitum and received humane care in compliance with the Principles of Laboratory Animal Care formulated by the National Society for Medical Research and the Guide for the care and Use of Laboratory Animals published by the National Institutes of Health (National Institutes of Health publication No. 85-23, revised 1985). Allogeneic (BN-to-Lew) and syngeneic (Lew-to-Lew) heterotopic heart transplantations were performed as described previously (Ono et al., J. Thorac. Cardiovasc. Surg. 57:225-229, 1969). In brief, rats were anaesthetized using 2% isoflurane. The donor received an intravenous bolus of 500 I.U. heparin. Cardiac arrest was achieved using 20 ml Bretschneider solution (Custodiol, Dr. F. Koehler Chemie, Bensheim, Germany). […] Heart-beating score was assessed directly after transplantation for each animal from score 0 (no palpable contraction) to 4 (strong and regular contraction). Only animals with beating scores of 4 were included into the study.
(§1) Compound I and Compound III were provided by Rigel (South San Francisco, Calif.) and Tacrolimus was provided by Astellas (Munich, Germany). All drugs were administrated orally each in two different concentrations: Compound I LD (15 mg/kg BID; n=6) and HD (60 mg/kg BID; n=6); Compound III LD (5 mg/kg BID; n=6) and HD (20 mg/kg BID; n=6); Tac LD (1 mg/kg QD; n=6) and HD (4 mg/kg QD; n=6). Administration of all drugs was performed every day at the same time points. Tacrolimus was applied only once a day (QD) every 24 hours. During administration of Compound I (BID) and Compound III (BID) a 12 hour pause was kept in between each drug application.
BN-to-Lew heterotopic heart transplantations were performed. Recipient animals were treated for 10 days according to Table 1 (10 day survival study group) and graft survival was monitored by daily palpation of the beating donor heart through the abdominal wall. Scoring was assessed according to heart-beating score of 0 to 4. The time of rejection was defined as the last day of palpable cardiac contractions and graft rejection was confirmed by laparotomy.
The median-effect principle of Chou (in Synergism and Antagonism in Chemotherapy, Chou and Rideout, eds, pp. 61-102, Academic Press, 1991) is based on the premise that the effect of each agent is related to its dose and, therefore, can be calculated using the following equation: (fa/fu)=(D/Dm)m, where fa and fu represent the fractions of the system that are affected (% inhibition or rather days of survival beyond controls) and unaffected (1−fa), respectively, by the drug at dose D. Full protection (fa=1) is defined as at least a 28-day survival of allografts. Dm is the dose required for 50% inhibition (ED50), the median effect (m) is a coefficient that describes the sigmoidicy of the dose-effect curve. The interaction between two drugs is assessed by the combination index (CI) equation for the doses to achieve x % inhibition:
[formula] for the mutually nonexclusive case, where each drug has a different mode of action. A computer software program was used to determine the dose-effect parameters (Dm, m, and r), and the CI values (CalcuSyn, Biosoft, Cambridge, United Kingdom).
Graft survival was monitored by daily palpation of the beating donor heart through the abdominal wall and treatment of animals was stopped after 10 days.

[3] = test system: Lew recipients of heterotopic BN heart transplants; assay: Five-day heart allograft study: donor-specific IgM antibodies by flow cytometry; conditions: LD and HD groups; five days; p<0.001
Description: as §1
(§2) Lew recipients of heterotopic BN heart transplants were randomly assigned to their group. Animals were either left untreated (groups 1 and 2; see Table 1,5-day study) or received their group specific medication (groups 3-8; see Table 1,5-day study) by oral application. An untreated syngeneic transplant group Lew-Lew was generated as control.
Donor splenocytes were isolated and erythrocytes were lysed using the ACK buffer (Lonza, Walkersville, Md.). Sera from recipient rats were decomplemented and equal amounts of sera and splenocyte suspensions (5×10^6 cells/ml) were incubated for 30 minutes at room temperature. IgM antibodies were stained by incubation of the cells with a conjugated mouse antibody specific for the Fc-portion of rat IgM (Monoclonal Anti-rat IGM, Clone RTM-32, Sigma) followed by incubation with a 488-conjugated secondary antibody (Invitrogen). Cells were washed with PBS, fixed with 2% paraformaldehyde (Science Services), and analyzed on a FACSCalibur™ system (BD Biosciences). Fluorescence data were expressed as mean fluorescence intensity (MFI) using Flowjo software (Tree Star, Inc., Ashland, Oreg.).

[4] = test system: Lew recipients of heterotopic BN heart transplants; assay: Five-day heart allograft study: ELISPOT (IFN-γ, IL-4, IL-17) of recipient splenocytes; conditions: LD groups (Compound I 15 mg/kg BID, Compound III 5 mg/kg BID, Tac 1 mg/kg QD); five days
Description: as §1, §2
Lymphocytes were isolated from freshly harvested spleens. ELISPOT assays with 1×10^7/ml mitomycin-inhibited BN splenocytes and 1×10^6/ml Lew splenocytes were performed according to the manufacturer's protocol (BD Biosciences). 96-well plates were coated with IFN-γ, IL-17, and IL-4 to assess T helper cell (Th)1-, Th17-, and Th2-responses independently. All assays were performed in quadruplicates. Spots were automatically enumerated using an ELISPOT plate reader (CTL, Cincinnati, Ohio) for scanning and analyzing.

SMILES: C=CC[C@@H]1/C=C(\C)C[C@H](C)C[C@H](OC)[C@H]2O[C@@](O)(C(=O)C(=O)N3CCCC[C@H]3C(=O)O[C@H](/C(C)=C/[C@@H]3CC[C@@H](O)[C@H](OC)C3)[C@H](C)[C@@H](O)CC1=O)[C@H](C)C[C@@H]2OC [Tac, Tacrolimus, reference compound]
- hearts with ISHLT score of 1 [1]: 67%
- hearts with ISHLT score of 2 [1]: 33%
- graft survival, mean ([2]; HD (Compound I 60 mg/kg BID, Compound III 20 mg/kg BID, Tac 4 mg/kg QD) for 10 days): 20 ± 3 days
- graft survival, mean ([2]; LD (Compound I 15 mg/kg BID, Compound III 5 mg/kg BID, Tac 1 mg/kg QD) for 10 days): 13 ± 2 days
- donor-specific IgM antibodies (DSA) vs. no medication [3]: significant suppression
- IFN-γ spot frequency (ELISPOT) compared to no medication group [4]: no significant reduction
